Test results as given in patent US10660789B2, “1,4-dihydropyridine derivatives with HSP modulating activity” (Richter Gedeon NYRT., priority 2011, dated 2020).
Where a name gives a salt, the structure may show the parent alone.

melting point	SMILES
241 to 245 °C	COC(=O)C1=C(CCN(C)C)N(C)C(CCN(C)C)=C(C(=O)OC)C1c1ccccc1Cl (as salt: hydrochloride) [Example 22, Dimethyl 4-(2-chorophenyl)-2,6-bis-(2-dimethylaminoethyl)-1-methyl-1,4-dihydropyridine-3,5-dicarboxylate dihydrochloride]
247 to 248 °C	COC(=O)C1=C(CCN(C)C)N(C)C(CCN2CCOCC2)=C(C(=O)OC)C1c1ccc(C(F)(F)F)cc1 (centres unmarked) (as salt: hydrochloride) [Example 31, Dimethyl 2-(2-dimethylamino-ethyl)-1-methyl-6-(2-morpholin-1-yl-ethyl)-4-(4-trifluoromethylphenyl)-1,4-dihydropyridine-3,5-dicarboxylate dihydrochloride]
188 to 193 °C	COC(=O)C1=C(CCN2CCCC2)N(C)C(CCN2CCCC2)=C(C(=O)OC)C1c1ccccc1Cl (as salt: hydrochloride) [Example 19, Dimethyl 4-(2-chlorophenyl)-1-methyl-2,6-bis-(2-pyrrolidin-1-yl-ethyl)-1,4-dihydropyridine-3,5-dicarboxylate dihydrochloride]
154 to 155 °C	COC(=O)C1=C(C)N(C)C(C)=C(C(=O)OC)C1c1ccccc1Cl [Example 18, Dimethyl 4-(2-chlorophenyl)-1,2,6-trimethyl-1,4-dihydropyridine-3,5-dicarboxylate]
171 to 173 °C	COC(=O)C1=C(C)N(C)C(CCN2CCOCC2)=C(C(=O)OC)C1c1ccccc1Cl.Cl (centres unmarked)
195 to 200 °C	COC(=O)C1=C(CCN2CCN(C)CC2)N(C)C(CCN2CCN(C)CC2)=C(C(=O)OC)C1c1ccc(C(F)(F)F)cc1 (as salt: hydrochloride) [Example 16, Dimethyl 1-methyl-2,6-bis-[2-(4-methyl-piperazin-1-yl)-ethyl]-4-(4-trifluoromethylphenyl)-1,4-dihydropyridine-3,5-dicarboxylate hydrochloride]
210 to 215 °C	COC(=O)C1=C(CCN2CCN(C)CC2)N(C)C(CCN2CCN(C)CC2)=C(C(=O)OC)C1c1ccccc1Cl (as salt: hydrochloride)

More lines, now with the values behind:

SMILES	melting point
COC(=O)C1=C(C)N(C)C(C)=C(C(=O)OC(C)C)C1c1ccc(C(F)(F)F)cc1 (centres unmarked) [Example 28, 1,2,6-Trimethyl-4-(4-trifluoromethylphenyl)-1,4-dihydropyridine-3,5-dicarboxylic acid 3-isopropyl ester 5-methyl ester]	92 to 94 °C
COC(=O)C1=C(C#N)N(C)C(CN2CCCC2)=C(C(=O)OC)C1c1ccc(C(F)(F)F)cc1.Cl (centres unmarked)	173 to 175 °C
COC(=O)C1=C(CCN(C)C)N(C)C(CCN2CCc3cc(OC)c(OC)cc3C2)=C(C(=O)OC)C1c1ccc(C(F)(F)F)cc1 (centres unmarked) (as salt: hydrochloride) [Example 42, Dimethyl 2-[2-(6,7-dimethoxy-1,2,3,4-tetrahydroisoquinolin-2-yl)-ethyl]-6-(2-dimethylamino-ethyl)-1-methyl-4-(4-trifluoromethylphenyl)-1,4-dihydropyridine-3,5-dicarboxylate dihydrochloride]	210 to 211 °C
COC(=O)C1=C(C)N(C)C(CCN2CCOCC2)=C(C(=O)OC)C1c1ccc(C(F)(F)F)cc1.Cl (centres unmarked)	188 to 193 °C
COC(=O)C1=C(C#N)N(C)C(CCN(C)C)=C(C(=O)OC)C1c1ccc(C(F)(F)F)cc1.Cl (centres unmarked)	215 to 216 °C
COC(=O)C1=C(C)N(C)C(C)=C(C(=O)OC)C1c1ccc(C)cc1 [Example 5, Dimethyl 1,2,6-trimethyl-4-(4-methylphenyl)-1,4-dihydropyridine-3,5-dicarboxylate]	176 to 178 °C
COC(=O)C1=C(C)N(C)C(C)=C(C(=O)OC(C)(C)C)C1c1ccc(C(F)(F)F)cc1 (centres unmarked) [Example 29, 1,2,6-Trimethyl-4-(4-trifluoromethylphenyl)-1,4-dihydropyridine-3,5-dicarboxylic acid 3-tert-butyl ester 5-methyl ester]	128 to 130 °C
